Data taken from BindingDB's records for doi:10.1176/jnp.8.2.223 (1996).
pKi: −log10 of the molar value. Values joined by “and” are separate entries in the source; they are usually repeats but may differ in a detail not shown here. Equal entries are not always repeated. Structures can show the parent of a compound that is named as a salt.

Experiments:
D(1A) dopamine receptor = D(1A) dopamine receptor (Bos taurus, UniProt Q95136)
D(2) dopamine receptor = D(2) dopamine receptor (Bos taurus, UniProt P20288)
Sequence of D(2) dopamine receptor (P20288 whole entry): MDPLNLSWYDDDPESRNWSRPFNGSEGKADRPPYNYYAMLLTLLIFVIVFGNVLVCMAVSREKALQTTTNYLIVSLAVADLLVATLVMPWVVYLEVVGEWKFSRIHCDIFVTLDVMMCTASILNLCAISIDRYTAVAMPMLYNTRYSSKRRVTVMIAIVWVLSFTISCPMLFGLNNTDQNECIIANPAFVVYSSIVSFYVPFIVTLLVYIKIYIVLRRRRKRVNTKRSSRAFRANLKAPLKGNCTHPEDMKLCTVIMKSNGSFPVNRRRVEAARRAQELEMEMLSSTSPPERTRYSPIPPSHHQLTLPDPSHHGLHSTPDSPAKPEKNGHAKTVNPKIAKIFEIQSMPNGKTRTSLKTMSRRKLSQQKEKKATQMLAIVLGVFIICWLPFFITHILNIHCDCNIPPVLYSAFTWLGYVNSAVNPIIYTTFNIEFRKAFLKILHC

Sequence of D(1A) dopamine receptor (Q95136 whole entry): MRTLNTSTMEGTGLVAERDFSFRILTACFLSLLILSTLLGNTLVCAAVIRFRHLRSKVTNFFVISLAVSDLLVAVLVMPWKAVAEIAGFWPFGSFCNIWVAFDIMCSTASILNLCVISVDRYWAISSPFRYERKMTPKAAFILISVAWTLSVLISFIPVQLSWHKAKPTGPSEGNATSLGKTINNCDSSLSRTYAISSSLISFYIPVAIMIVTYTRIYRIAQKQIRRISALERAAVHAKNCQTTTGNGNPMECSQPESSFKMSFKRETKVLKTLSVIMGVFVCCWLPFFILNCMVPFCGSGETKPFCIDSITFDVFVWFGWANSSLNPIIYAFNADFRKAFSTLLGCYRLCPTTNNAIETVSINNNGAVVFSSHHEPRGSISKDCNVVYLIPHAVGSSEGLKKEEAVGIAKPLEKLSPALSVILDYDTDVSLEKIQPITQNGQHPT

Row | Structure (SMILES) | pKi (D(1A) dopamine receptor) | pKi (D(2) dopamine receptor)
1 | O=c1[nH]c2ccccc2n1C1CCN(CCCC(c2ccc(F)cc2)c2ccc(F)cc2)CC1 [1-(1-(4,4-bis(4-fluorophenyl)butyl)piperidin-4-yl)-1H-benzo[d]imidazol-2(3H)-one] | 5.39 | 9.10
2 | OCCN1CCN(CCCN2c3ccccc3Sc3ccc(C(F)(F)F)cc32)CC1 [2-[4-[3-[2-(trifluoromethyl)phenothiazin-10-yl]propyl]piperazin-1-yl]ethanol;hydrochloride] |  | 8.92 and 9.30
3 | O=C(CCCN1CCC(O)(c2ccc(Cl)cc2)CC1)c1ccc(F)cc1 [4-[4-(4-Chloro-phenyl)-4-hydroxy-piperidin-1-yl]-1-(4-fluoro-phenyl)-butan-1-one;propionate(HCl)] | 6.19 | 
4 | OCCN1CCN(CC/C=C2/c3ccccc3Sc3ccc(C(F)(F)F)cc32)CC1 [(cis) 2-{4-[3-(2-Trifluoromethyl-thioxanthen-9-ylidene)-propyl]-piperazin-1-yl}-ethanol(Flupentixol)] |  | 8.96
5 | CN1CCN(CC/C=C2/c3ccccc3Sc3ccc(S(=O)(=O)N(C)C)cc32)CC1 [MLS000028463] |  | 8.85
